# From publication PMC9501232, “Novel 4-Azapregnene Derivatives as Potential Anticancer Agents: Synthesis, Antiproliferative Activity and Molecular Docking Studies” (Molecules, 2022)
# pIC50: −log10 of the molar value.
# How the values were obtained:
# T47-D cells [1] = experiment: MTT cell proliferation assay, T47-D; assay type: cell-based, human; conditions: 72 h; for MTT screening, cell proliferation: 30 µM, average ± SD; for pIC50: Homo sapiens, T47D, MTT
# Description: (§1) Cell lines, namely LNCaP, PC-3, T47-D and NHDF were obtained from American Type Culture Collection (ATCC; Manassas, VA, USA) and cultured in 75 cm^2 culture flasks at 37 °C in a humidified air incubator with 5% CO2. LNCaP, PC-3 and T47-D cells, which were used in passages 20th to 27th, 25th to 29th and 10th to 15th, respectively, were cultured in RPMI 1640 medium (Sigma-Aldrich, Inc., St. Louis, MO, USA) with 10% fetal bovine serum (FBS; Sigma-Aldrich, Inc. St. Louis, MO, USA) and 1% of the antibiotic mixture of 10,000 IU/mL penicillin G and […] of streptomycin (Sp, Sigma-Aldrich, Inc. St. Louis, MO, USA). Finally, NHDF cells (Normal Human Dermal Fibroblasts) were cultured in RPMI 1640 medium supplemented with 10% FBS, 2 mM L-glutamine, 10 mM HEPES, 1 mM sodium pyruvate and 1% of an antibiotic/antimycotic mixture (10,000 U/mL penicillin G, 100 mg/mL streptomycin and 25 µg/mL amphotericin B) (Ab; Sigma-Aldrich, Inc. St. Louis, MO, USA), and these cells were used in passages 10 to 12. For all cell types, the medium was renewed every 2–3 days until cells reach nearly the confluence state. Then, they were detached gently by trypsinization (trypsin-EDTA solution: 0.125 g/L of trypsin and 0.02 g/L of EDTA).
# (§2) All the stock solutions were prepared by dissolving compounds in dimethyl sulfoxide (DMSO; Sigma-Aldrich, Inc., St. Louis, MO, USA) at 10 mM and stored at 4 °C. From these solutions, the several diluted compounds solutions in different concentrations were freshly prepared in a complete culture medium before each experiment.
# (§3) As previously referred, cells were trypsinized after reaching a near confluence state and counted by the trypan blue exclusion assay in a Neubauer chamber. Then, 100 µL of cell suspension/well with an initial density of 2 × 10^4 cells/mL were seeded in 96-well culture plates (Nunc, Apogent, Denmark) and left to adhere for 48 h. After cells adherence, the medium was replaced by the distinct solutions of the compounds in the study (30 µM for preliminary studies and 0.01, 0.1, 1, 10, 50 and 100 µM for concentration–response studies) in the appropriate medium for approximately 72 h. 5-FU and finasteride were used as positive controls and untreated cells were used as the negative control. Each experiment was performed in quadruplicate and independently performed at least two times. The in vitro antiproliferative effects were evaluated by the MTT assay (Sigma-Aldrich, Inc. St. Louis, USA). After the incubation period, the medium was removed and 100 µL of phosphate buffer saline (NaCl 137 mM, KCl 2.7 mM, Na2HPO4 10 mM and KH2PO4 1.8 mM in deionized water and pH adjusted to 7.4) were used to wash the cells. Then, 100 µL of the MTT solution (5 mg/mL) was prepared in the appropriate serum-free medium and was added to each well, followed by incubation for 4 h at 37 °C. Hereafter, the MTT containing medium was removed and the formazan crystals were dissolved in DMSO. Then the absorbance was measured at 570 nm using a microplate spectrophotometer BIO-RAD xMarkTM. Cell viability values were expressed as percentages relative to the absorbance determined in the cells used as negative controls.
# (§4) The data are expressed as a mean ± standard deviation (SD) and differences between groups were considered statistically significant when p < 0.05. The IC50 values were determined through sigmoidal fitting analysis with variable slope and considering a 95% confidence level. All data shown are representative of at least two independent experiments.
# LNCaP cells = experiment: MTT cell proliferation assay, LNCaP; assay type: cell-based, human; conditions: 72 h; for MTT screening, cell proliferation: 30 µM, average ± SD; for pIC50: Homo sapiens, MTT
# Description: as §1, §2, §3, §4
# PC-3 cells = experiment: MTT cell proliferation assay, PC-3; assay type: cell-based, human; conditions: for MTT screening, cell proliferation: PC-3, 30 µM, 72 h, average ± SD; for pIC50: Homo sapiens, PC-3, 72 h, MTT
# Description: as §1, §2, §3, §4
# [2] = system: NHDF cells (Normal Human Dermal Fibroblasts); experiment: MTT cell proliferation assay, NHDF; assay type: cell-based; conditions: 72 h; for MTT screening, cell proliferation: 30 µM, average ± SD; for pIC50: Homo sapiens, MTT
# Description: as §1, §2, §3, §4
# [3] = system: caspase-9 activity in T47-D cells; experiment: Caspase-Glo 9 caspase-9 activity assay; assay type: cell-based, human; conditions: 48 h, DOX 10 µM, 3g 10 and 20 µM, relative to untreated cells
# Description: Promega Caspase-Glo 9 assay (Promega, Madison, WI, USA) was employed to evaluate the caspase-9 activity. T47-D cells were seeded in a 96 multiwell plate at a density of 4 × 10^4 cells/mL. After 48 h, cells were treated with the positive control, DOX, at 10 μM and with 10 and 20 μM of 3g, during 48 h. The assay was performed at the end of treatment, following the instructions provided by the manufacturer. Data are representative of at least two experiments (n = 4 in each).
# T47-D cells [4] = experiment: Cell nuclear morphology and distribution analysis with ImageJ; assay type: cell-based, human; conditions: 20 µM, 48 and 72 h
# Excerpt: The nuclear measurements were achieved by converting 16-bit photomicrographs of Hoechst 3342-stained nuclei, in different conditions, into 8-bit images and then these images were autothresholded to binary photos using the default method “Make binary” function of ImageJ v 1.49. Cell nuclei that are touching were separated and fragments were discarded based on the area through the “Analyze Particle” function. This function also provides several information pretended as nuclear area, circumference and form factor [33]. In addition, the “Nearest Neighbor Distance” was determined. This function allows measuring the distance between each cell nucleus and the nearest ones.
compound,measurement,setting,value
"4-Azapregn-4-ene-3,20-dione [Compound 2]","MTT screening, cell proliferation",T47-D cells [1],137.0 ± 18.0 percentage of negative control
same,"MTT screening, cell proliferation",LNCaP cells,58.3 ± 13.6 percentage of negative control
same,"MTT screening, cell proliferation",PC-3 cells,96.7 ± 9.3 percentage of negative control
same,"MTT screening, cell proliferation",[2],106.1 ± 6.0 percentage of negative control
"Cc1ccc(/C=C/C(=O)[C@H]2CC[C@H]3[C@@H]4CC=C5NC(=O)CC[C@]5(C)[C@H]4CC[C@]23C)cc1 [Compound 3b, 21E-[(4-Methylphenyl)methylidene]-4-azapregn-5-ene-3,20-dione]",melting point,,191 to 193 °C
same,"MTT screening, cell proliferation",T47-D cells [1],45.0 ± 11.6 percentage of negative control
same,pIC50,T47-D cells [1],4.35
same,"MTT screening, cell proliferation",LNCaP cells,62.7 ± 9.0 percentage of negative control
same,pIC50,PC-3 cells,4.59
same,"MTT screening, cell proliferation",PC-3 cells,25.9 ± 3.8 percentage of negative control
same,"MTT screening, cell proliferation",[2],83.0 ± 3.6 percentage of negative control
"CC(=O)[C@H]1CC[C@H]2[C@@H]3CCC4=CC(=O)CC[C@]4(C)[C@H]3CC[C@]12C [Progesterone, reference compound]","MTT screening, cell proliferation",T47-D cells [1],62.9 ± 6.8 percentage of negative control
same,"MTT screening, cell proliferation",LNCaP cells,64.3 ± 16.1 percentage of negative control
same,"MTT screening, cell proliferation",PC-3 cells,42.9 ± 5.4 percentage of negative control
same,"MTT screening, cell proliferation",[2],96.6 ± 14.3 percentage of negative control
"C[C@]12CC[C@H]3[C@@H](CC=C4NC(=O)CC[C@@]43C)[C@@H]1CC[C@@H]2C(=O)/C=C/c1ccccc1 [Compound 3a, 21E-(Phenylmethylidene)-4-azapregn-5-ene-3,20-dione]","MTT screening, cell proliferation",T47-D cells [1],6.5 ± 5.4 percentage of negative control
same,pIC50,T47-D cells [1],4.77
same,"MTT screening, cell proliferation",LNCaP cells,6.5 ± 5.3 percentage of negative control
same,pIC50,LNCaP cells,4.56
same,pIC50,PC-3 cells,4.90
same,"MTT screening, cell proliferation",PC-3 cells,1.4 ± 1.0 percentage of negative control
same,"MTT screening, cell proliferation",[2],25.1 ± 7.4 percentage of negative control
same,pIC50,[2],4.19
"C[C@]12CCC(=O)C[C@@H]1CC[C@@H]1[C@@H]2CC[C@]2(C)[C@@H](O)CC[C@@H]12 [DHT, 5α-dihydrotestosterone, reference compound]","MTT screening, cell proliferation",T47-D cells [1],90.7 ± 9.4 percentage of negative control
same,"MTT screening, cell proliferation",LNCaP cells,138.9 ± 3.9 percentage of negative control
same,"MTT screening, cell proliferation",PC-3 cells,93.1 ± 4.9 percentage of negative control
same,"MTT screening, cell proliferation",[2],100.5 ± 7.4 percentage of negative control
"Cc1ccc(/C=C/C(=O)[C@H]2CC[C@H]3[C@@H]4CC=C5NC(=O)CC[C@]5(C)[C@H]4CC[C@]23C)o1 [Compound 3f, 21E-[(5-Methylfuran-2-yl)methylidene]-4-azapregn-5-ene-3,20-dione]",melting point,,200 to 203 °C
same,"MTT screening, cell proliferation",T47-D cells [1],104.3 ± 11.3 percentage of negative control
same,"MTT screening, cell proliferation",LNCaP cells,88.9 ± 17.7 percentage of negative control
same,"MTT screening, cell proliferation",PC-3 cells,108.1 ± 7.8 percentage of negative control
same,"MTT screening, cell proliferation",[2],89.7 ± 9.7 percentage of negative control
"COc1cccc2c1C(=O)c1c(O)c3c(c(O)c1C2=O)C[C@@](O)(C(=O)CO)C[C@@H]3O[C@H]1C[C@H](N)[C@H](O)[C@H](C)O1 [DOX, doxorubicin, reference compound]",Caspase-9 activity,[3],significant elevation in caspase-9 activity
"C[C@]12CC[C@H]3[C@@H](CC=C4NC(=O)CC[C@@]43C)[C@@H]1CC[C@@H]2C(=O)/C=C/c1ccco1 [Compound 3e, 21E-[(Furan-2-yl)methylidene]-4-azapregn-5-ene-3,20-dione]",melting point,,260 to 261 °C
same,"MTT screening, cell proliferation",T47-D cells [1],92.6 ± 7.4 percentage of negative control
same,"MTT screening, cell proliferation",LNCaP cells,85.3 ± 6.7 percentage of negative control
same,"MTT screening, cell proliferation",PC-3 cells,82.7 ± 6.5 percentage of negative control
same,"MTT screening, cell proliferation",[2],111.6 ± 13.9 percentage of negative control
"C[C@]12CC[C@H]3[C@@H](CC=C4NC(=O)CC[C@@]43C)[C@@H]1CC[C@@H]2C(=O)/C=C/c1ccc([N+](=O)[O-])cc1 [Compound 3c, 21E-[(4-Nitrophenyl)methylidene]-4-azapregn-5-ene-3,20-dione]","MTT screening, cell proliferation",T47-D cells [1],6.7 ± 4.6 percentage of negative control
same,pIC50,T47-D cells [1],5.18
same,"MTT screening, cell proliferation",LNCaP cells,5.2 ± 2.6 percentage of negative control
same,pIC50,LNCaP cells,4.79
same,pIC50,PC-3 cells,5.48
same,"MTT screening, cell proliferation",PC-3 cells,0.7 ± 0.5 percentage of negative control
same,"MTT screening, cell proliferation",[2],20.3 ± 2.8 percentage of negative control
same,pIC50,[2],5.16
"C[C@]12CC[C@H]3[C@@H](CCC4=CC(=O)CC[C@@]43C)[C@@H]1CC[C@@H]2O [Testosterone, reference compound]","MTT screening, cell proliferation",T47-D cells [1],72.0 ± 4.0 percentage of negative control
same,"MTT screening, cell proliferation",LNCaP cells,99.2 ± 4.2 percentage of negative control
same,"MTT screening, cell proliferation",PC-3 cells,89.5 ± 9.0 percentage of negative control
same,"MTT screening, cell proliferation",[2],94.2 ± 7.3 percentage of negative control
"COc1ccc(/C=C/C(=O)[C@H]2CC[C@H]3[C@@H]4CC=C5NC(=O)CC[C@]5(C)[C@H]4CC[C@]23C)cc1 [Compound 3d, 21E-[(4-Methoxyphenyl)methylidene]-4-azapregn-5-ene-3,20-dione]",melting point,,280 to 282 °C
same,"MTT screening, cell proliferation",T47-D cells [1],73.9 ± 14.6 percentage of negative control
same,"MTT screening, cell proliferation",LNCaP cells,88.0 ± 15.5 percentage of negative control
same,"MTT screening, cell proliferation",PC-3 cells,58.2 ± 6.0 percentage of negative control
same,"MTT screening, cell proliferation",[2],52.4 ± 2.8 percentage of negative control
CC(=O)[C@H]1CCC2C3CCC(=O)[C@](C)(CCC(=O)O)C3CC[C@@]21C (stereo partly drawn) [Compound 1],melting point,,168 to 169 °C
same,"MTT screening, cell proliferation",T47-D cells [1],130.8 ± 20.8 percentage of negative control
same,"MTT screening, cell proliferation",LNCaP cells,96.4 ± 16.1 percentage of negative control
same,"MTT screening, cell proliferation",PC-3 cells,102.1 ± 5.2 percentage of negative control
same,"MTT screening, cell proliferation",[2],100.0 ± 6.0 percentage of negative control
"O=c1[nH]cc(F)c(=O)[nH]1 [Compound 5-FU, 5-fluorouracil, reference compound]","MTT screening, cell proliferation",T47-D cells [1],42.3 ± 6.4 percentage of negative control
same,pIC50,T47-D cells [1],6.15
same,Nearest neighbor distance (NND) of cell nuclei,T47-D cells [4],different distances
same,"MTT screening, cell proliferation",LNCaP cells,18.6 ± 2.6 percentage of negative control
same,pIC50,LNCaP cells,5.82
same,pIC50,PC-3 cells,5.48
same,"MTT screening, cell proliferation",PC-3 cells,10.8 ± 3.1 percentage of negative control
same,"MTT screening, cell proliferation",[2],33.6 ± 8.2 percentage of negative control
same,pIC50,[2],4.53
